The record followed here is patent US20120040930A1, “TETRACYCLIC TERPENE SERIES COMPOUNDS, METHODS FOR PREPARING SAME, USES THEREOF AS MEDICINES AND PHARMACEUTICAL COMPOUNDS CONTAINING SAME” (priority 2005, published 2012).

The target in the assay is T1, acetylcholinesterase (AChE) isolated from Electrophorus electricus (Electrophorus electricus, UniProt O42275).
T1 construct: AChE isolated from Electrophorus electricus; from tissue
As to the kind of experiment: biochemical.

Where [1] appears, read: AChE isolated from Electrophorus electricus, read-out: AChE IC50.

Like-named read-outs stand apart in the source and are kept apart here. Some results are limits rather than exact numbers.

T1 sequence (O42275 24-633): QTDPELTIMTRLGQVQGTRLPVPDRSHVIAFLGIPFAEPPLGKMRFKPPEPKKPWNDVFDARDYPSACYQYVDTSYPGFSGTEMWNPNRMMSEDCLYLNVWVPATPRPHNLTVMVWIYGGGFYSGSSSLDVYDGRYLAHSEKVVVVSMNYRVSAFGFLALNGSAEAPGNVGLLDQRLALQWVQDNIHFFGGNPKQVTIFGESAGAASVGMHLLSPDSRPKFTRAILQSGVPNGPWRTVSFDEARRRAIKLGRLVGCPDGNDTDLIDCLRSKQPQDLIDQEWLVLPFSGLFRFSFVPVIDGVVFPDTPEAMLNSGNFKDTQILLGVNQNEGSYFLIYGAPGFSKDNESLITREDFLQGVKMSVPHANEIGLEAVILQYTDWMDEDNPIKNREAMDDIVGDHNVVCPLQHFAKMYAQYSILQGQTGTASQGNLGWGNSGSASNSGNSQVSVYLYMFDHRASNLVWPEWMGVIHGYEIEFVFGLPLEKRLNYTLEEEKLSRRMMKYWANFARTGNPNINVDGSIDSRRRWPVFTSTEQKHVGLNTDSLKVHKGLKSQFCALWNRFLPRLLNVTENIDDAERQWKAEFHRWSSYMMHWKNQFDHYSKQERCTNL

`C[C@@H]([C@H]1[C@H](O)C[C@@]2(C)[C@@H]3CC[C@@H]4C5(CC[C@H](NC(=O)Cc6ccccc6)[C@@]4(C)CO)C[C@@]35C(=O)C[C@]12C)N(C)C` (stereo partly drawn) [Compound 6g, (20S)-9,19-cyclo-4α-hydroxymethyl-4,14α-dimethyl-20-dimethylamino-3 (phenylacetylamino)-5α,9-pregnan-16α-ol-11-one]: under setting [1], the IC50 is > 5000 nM.

`CC1=N[C@H]2CC=C3C[C@H]4C(=O)C[C@]5(C)[C@@H]([C@H](C)N(C)C)[C@H](O)C[C@@]5(C)[C@@H]4CC[C@H]3[C@]2(C)CO1` [Compound 8a, (20S)-10(9->1)abeo-4,14α-dimethyl-20-dimethylamino(2′-methyl-4′,4′-dihydro[3′,1′]oxazin)-5α,9-pregn-1(10)-en-16α-ol-11-one]: the IC50 under setting [1] turned out to be 676 nM.

On to `C[C@@H]([C@H]1[C@H](O)C[C@@]2(C)[C@@H]3CC[C@@H]4C(=CC[C@@H]5N=C(c6ccccc6)OC[C@]54C)C[C@H]3C(=O)C[C@]12C)N(C)C` [Compound 8b, (20S)-10(9->1)abeo-4,14α-dimethyl-20-dimethylamino(2′-phenyl-4′,4′-dihydro[3′,1′]oxazin)-5α,9-pregn-1(10)-en-16α-ol-11-one], for which the IC50 (read-out: AChE IC50) is 7650 nM.

As for `CC(C)[C@H]1N[C@H]2CC=C3C[C@H]4C(=O)C[C@]5(C)[C@@H]([C@H](C)N(C)C)[C@H](O)C[C@@]5(C)[C@@H]4CC[C@H]3[C@]2(C)CO1` [Compound 12, (20S)-10(9->1)abeo-4,14α-dimethyl-20-dimethylamino(2′β-isopropyl-1′,2′,4′,4′-tetrahydro[3′,1′]oxazin)-5α,9-pregn-1(10)-en-16α-ol-11-one], under setting [1], the IC50 stood at 823 nM.

As to `CN[C@@H](C)[C@H]1[C@H](O)C[C@@]2(C)[C@@H]3CC[C@@H]4C(=CCC5N=C(C(C)C)OC[C@]54C)C[C@H]3C(=O)C[C@]12C` (stereo partly drawn) [Compound 33, (20S)-10(9->1)abeo-20-methylamino-4β,14α-dimethyl-(2′-isopropyl-3,29-dihydro-4H-[1,3]-oxazine)-5α,9β-pregn-1(10)-en-16α-ol-11-one], under setting [1], the IC50 amounted to 106 nM.

As to `CC(C)C(=O)N[C@H]1CCC23C[C@@]24[C@@H](CC[C@H]3[C@]1(C)CO)[C@]1(C)C[C@@H](O)[C@H]([C@H](C)N(C)C)[C@@]1(C)C[C@@H]4O` (stereo partly drawn) [Compound 34, (20S)-20-dimethylamino-3β-(isobutyrylamino)-9,19-cyclo-4α-hydroxymethyl-4β,14α-dimethyl-5α,9β-pregnan-11β,16α-diol-11-one], the IC50 under setting [1] is > 100000 nM.

With `CC[C@H](C)C(=O)N[C@H]1CCC23C[C@@]24[C@@H](CC[C@H]3[C@]1(C)CO)[C@]1(C)C[C@@H](O)[C@H]([C@H](C)N(C)C)[C@@]1(C)C[C@@H]4O` (stereo partly drawn) [Compound 35, (20S)-20-dimethylamino-3β-((S)-2-methylbutyrylamino)-9,19-cyclo-4α-hydroxymethyl-4β,14α-dimethyl-5α,9β-pregnan-11β,16α-diol-11-one], the IC50 under setting [1] is > 100000 nM.

As to `Cc1ccc(S(=O)(=O)O[C@@H]2C[C@@]3(C)[C@@H]4CC[C@@H]5C6(CC[C@H](NC(=O)C(C)C)[C@@]5(C)CO)C[C@@]46C(=O)C[C@]3(C)[C@H]2[C@H](C)N(C)C)cc1` (stereo partly drawn) [Compound 36, (20S)-3β-isobutyrylamino-20-dimethylamino-9,19-cyclo-4β,14α-dimethyl-4α-hydroxymethyl-16α-tosyl-5α,9β-pregnan-11-one], the IC50 under setting [1] is > 100000 nM.

As for `CC(C)C(=O)N[C@H]1CCC23C[C@]24C(=O)C[C@]2(C)[C@@H]([C@H](C)N(C)C)[C@H](OS(C)(=O)=O)C[C@@]2(C)[C@@H]4CC[C@H]3[C@]1(C)CO` (stereo partly drawn) [Compound 37, (20S)-3β-isobutyrylamino-20-dimethylamino-9,19-cyclo-4β,14α-dimethyl-4α-hydroxymethyl-16α-mesyl-5α,9β-pregnan-11-one], under setting [1], the IC50 was ≥ 100000 nM.

Take `CC(C)C1=N[C@H]2CCC34C[C@]35C(=O)C[C@]3(C)[C@@H]([C@H](C)N(C)C)[C@H](OC(=O)C(C)(C)C)C[C@@]3(C)[C@@H]5CC[C@H]4[C@]2(C)CO1` (stereo partly drawn) [Compound 38, (20S)-20-dimethylamino-9,19-cyclo-4β,14α-dimethyl-16α-pivalyl-(2′-isopropyl-3,29-dihydro-4H-[1,3]-oxazine)-5α,9β-pregn-11-one]: under setting [1], the IC50 is 181 nM.

`CC(C)C1=N[C@H]2CC=C3C[C@H]4C(=O)C[C@]5(C)[C@@H]([C@H](C)N(C)C)[C@H](OC(=O)C(C)(C)C)C[C@@]5(C)[C@@H]4CC[C@H]3[C@]2(C)CO1` [Compound 39, (20S)-10(9->1)abeo-20-dimethylamino-4β,14α-dimethyl-16α-pivalyl-(2′-isopropyl-3,29-dihydro-4H-[1,3]-oxazine)-5α,9β-pregn-1(10)-en-11-one] displayed an IC50 (AChE IC50) of 198 nM.

`CC(=O)O[C@@H]1C[C@@]2(C)[C@@H]3CC[C@@H]4C(=CC[C@@H]5N=C(C(C)C)OC[C@]54C)C[C@H]3C(=O)C[C@]2(C)[C@H]1[C@H](C)N(C)C` [Compound 40] displayed an IC50 (AChE IC50) of 112 nM.

Take `CC(=O)OC[C@]1(C)[C@@H](NC(=O)C(C)C)CCC23C[C@]24C(=O)C[C@]2(C)[C@@H]([C@H](C)N(C)C)[C@H](O)C[C@@]2(C)[C@@H]4CC[C@H]31` (stereo partly drawn) [Compound 41, (20S)-3β-isobutyrylamino-20-dimethylamino-9,19-cyclo-4β,14α-dimethyl-4α-acetylmethyl-5α,9β-pregnan-16α-ol-11-one]: under setting [1], the IC50 was > 100000 nM.

With `CC(=O)OC[C@]1(C)[C@@H](NC(=O)C(C)C)CCC23C[C@]24C(=O)C[C@]2(C)[C@@H]([C@H](C)N(C)C)[C@H](OC(C)=O)C[C@@]2(C)[C@@H]4CC[C@H]31` (stereo partly drawn) [Compound 42, (20S)-16α-acetyl-3β-isobutyrylamino-20-dimethylamino-9,19-cyclo-4β,14α-dimethyl-4α-acetylmethyl-5α,9β-pregnan-11-one], the IC50 under setting [1] was > 100000 nM.

For `CN[C@@H](C)[C@H]1[C@H](OC(=O)C(C)(C)C)C[C@@]2(C)[C@@H]3CC[C@@H]4C5(CC[C@H](NC(=O)C(C)C)[C@@]4(C)C=O)C[C@@]35C(=O)C[C@]12C` (stereo partly drawn) [Compound 43, (20S)-3β-isobutyrylamino-20-methylamino-9,19-cyclo-4β,14α-dimethyl-4α-formyl-16α-pivalyl-5α,9β-pregnan-11-one], the IC50 under setting [1] was > 100000 nM.

For the compound `CC(C)C(=O)N[C@H]1CCC23C[C@]24C(=O)C[C@]2(C)[C@@H]([C@H](C)N(C)C)[C@H](O)C[C@@]2(C)[C@@H]4CC[C@H]3[C@]1(C)C=O` (stereo partly drawn) [Compound 44, (20S)-3β-isobutyrylamino-20-dimethylamino-9,19-cyclo-4β,14α-dimethyl-4α-formyl-5α,9β-pregnan-16α-ol-11-one], under setting [1], the concentration for half-maximal inhibition (IC50) is > 100000 nM.

As for `CC(C)C(=O)N[C@H]1CCC23C[C@]24C(=O)C[C@]2(C)[C@@H]([C@H](C)N(C)C)[C@H](O)C[C@@]2(C)[C@@H]4CC[C@H]3[C@]1(C)/C=N/Cc1ccccc1` (stereo partly drawn) [Compound 45, (20S)-20-dimethylamino-3β-(isobutyrylamino)-9,19-cyclo-4α-benzyliminomethyl-4β,14α-dimethyl-5α,9β-pregnan-16α-ol-11-one], the IC50 under setting [1] is > 100000 nM.

With `CC(C)C(=O)N[C@H]1CCC23C[C@]24C(=O)C[C@]2(C)[C@@H]([C@H](C)N(C)C)[C@H](O)C[C@@]2(C)[C@@H]4CC[C@H]3[C@]1(C)CNCc1ccccc1` (stereo partly drawn) [Compound 46, (20S)-20-dimethylamino-3β-(isobutyrylamino)-9,19-cyclo-4α-benzylaminomethyl-4β,14α-dimethyl-5α,9β-pregnan-16α-ol-11-one], the IC50 under setting [1] is 33900 nM.

For the compound `CC(C)C(=O)N[C@H]1CCC23C[C@]24C(=O)C[C@]2(C)[C@@H]([C@H](C)N(C)C)[C@H](OC(=O)C(C)(C)C)C[C@@]2(C)[C@@H]4CC[C@H]3[C@]1(C)CNCc1ccccc1` (stereo partly drawn) [Compound 47, (20S)-3β-isobutyrylamino-20-dimethylamino-9,19-cyclo-4α-benzylaminomethyl-4β,14α-dimethyl-16α-pivalyl-5α,9β-pregnan-11-one], under setting [1], the IC50 worked out at 20100 nM.

`CC(C)C(=O)N[C@H]1CCC23C[C@]24C(=O)C[C@]2(C)[C@@H]([C@H](C)N(C)C)[C@H](O)C[C@@]2(C)[C@@H]4CC[C@H]3[C@]1(C)CN` (stereo partly drawn) [Compound 49, (20S)-20-dimethylamino-3β-(isobutyrylamino)-9,19-cyclo-4α-aminomethyl-4β,14α-dimethyl-5α,9β-pregnan-16α-ol-11-one] registered an IC50 (AChE IC50) of 1340 nM.

Take `CC(C)C(=O)NC1CCC23C[C@]24C(=O)C[C@]2(C)[C@@H]([C@H](C)N(C)C)[C@H](OC(=O)C(C)(C)C)C[C@@]2(C)[C@@H]4CC[C@H]3[C@]1(C)CN` (stereo partly drawn) [Compound 50, (20S)-3β-isobutyrylamino-20-dimethylamino-9,19-cyclo-4α-aminomethyl-4β,14α-dimethyl-16α-pivalyl-5α,9β-pregnan-11-one]: under setting [1], the IC50 is 1330 nM.

Under “AChE IC50”, `CC(C)C1=NC2CCC34C[C@]35C(=O)C[C@]3(C)[C@@H]([C@H](C)N(C)C)[C@H](O)C[C@@]3(C)[C@@H]5CC[C@H]4[C@]2(C)CN1` (stereo partly drawn) [Compound 51, (20S)-20-dimethylamino-9,19-cyclo-4β,14α-dimethyl-(2-isopropyl-5β-methyl-1,4,5,6-tetrahydro-pyrimidin-5-yl)-5α,9β-pregnan-16α-ol-11-one] had an IC50 of 18 nM.

`CC(C)C1=NC2CCC34C[C@]35C(=O)C[C@]3(C)[C@@H]([C@H](C)N(C)C)[C@H](OC(=O)C(C)(C)C)C[C@@]3(C)[C@@H]5CC[C@H]4[C@]2(C)CN1` (stereo partly drawn) [Compound 52, (20S)-20-dimethylamino-9,19-cyclo-4β,14α-dimethyl-16α-pivalyl-(2′-isopropyl-1′/3′,3,29-tetrahydropyrimidine)-5α,9β-pregnan-11-one]: the IC50 under setting [1] is 29 nM.

Take `CC(C)C(=O)N[C@H]1CCC23C[C@]24C(=O)C[C@]2(C)[C@@H]([C@H](C)N(C)C)[C@H](OC(=O)C(C)(C)C)C[C@@]2(C)[C@@H]4CC[C@H]3[C@]1(C)/C=N/C([Si](C)(C)C)[Si](C)(C)C` (stereo partly drawn) [Compound 54, (20S)-3β-isobutyrylamino-20-dimethylamino-9,19-cyclo-4β,14α-dimethyl-4α-(bis-(trimethylsilanyl)methylimino)methyl-16α-pivalyl-5α,9β-pregnan-11-one]: the IC50 under setting [1] is > 100000 nM.

The IC50 is the concentration at which inhibition is half-maximal.
